For orientation: pIC50 means −log10 of the IC50, conventionally taken in molar units.

Our source for the IC50, inhibition and Activity values is ChEMBL document CHEMBL4665814, “Structurally Diverse Labdane Diterpenoids from Leonurus japonicus and Their Anti-inflammatory Properties in LPS-Induced RAW264.7 Cells” (J Nat Prod, 2020).

In data set [1] the test system is RAW264.7. As to the kind of experiment: Anti-inflammatory activity in mouse RAW264.7 cells assessed as inhibition of LPS-induced NO production preincubated for 2 hrs followed by LPS addition and measured after 18 hrs by Griess reagent-based assay. The data set is classed as functional, cell-based.
Data set [2] concerns RAW264.7. As to the kind of experiment: Anti-inflammatory activity in mouse RAW264.7 cells assessed as inhibition of LPS-induced iNOS level after 16 hrs by Western blot analysis. In kind it is functional, cell-based. (In general: A western blot detects proteins with antibodies after separation by electrophoresis.)
The subject of data set [3] is RAW264.7. The data set is described as follows: Cytotoxicity against mouse RAW264.7 cells assessed as reduction in cell viability at 3.1 to 25 uM after 48 hrs by MTT assay. The data set is classed as cell-based. As to conditions: raw264.7, 48 h, dose 3.1-25 µM. (In general: Tetrazolium assays rely on reduction of a dye to a coloured formazan, in cell work by metabolically active cells.)

For data set [4], the target named is T1, Inhibitor of nuclear factor kappa-B kinase subunit alpha (Mus musculus) (UniProt Q60680).
T1 sequence (whole entry): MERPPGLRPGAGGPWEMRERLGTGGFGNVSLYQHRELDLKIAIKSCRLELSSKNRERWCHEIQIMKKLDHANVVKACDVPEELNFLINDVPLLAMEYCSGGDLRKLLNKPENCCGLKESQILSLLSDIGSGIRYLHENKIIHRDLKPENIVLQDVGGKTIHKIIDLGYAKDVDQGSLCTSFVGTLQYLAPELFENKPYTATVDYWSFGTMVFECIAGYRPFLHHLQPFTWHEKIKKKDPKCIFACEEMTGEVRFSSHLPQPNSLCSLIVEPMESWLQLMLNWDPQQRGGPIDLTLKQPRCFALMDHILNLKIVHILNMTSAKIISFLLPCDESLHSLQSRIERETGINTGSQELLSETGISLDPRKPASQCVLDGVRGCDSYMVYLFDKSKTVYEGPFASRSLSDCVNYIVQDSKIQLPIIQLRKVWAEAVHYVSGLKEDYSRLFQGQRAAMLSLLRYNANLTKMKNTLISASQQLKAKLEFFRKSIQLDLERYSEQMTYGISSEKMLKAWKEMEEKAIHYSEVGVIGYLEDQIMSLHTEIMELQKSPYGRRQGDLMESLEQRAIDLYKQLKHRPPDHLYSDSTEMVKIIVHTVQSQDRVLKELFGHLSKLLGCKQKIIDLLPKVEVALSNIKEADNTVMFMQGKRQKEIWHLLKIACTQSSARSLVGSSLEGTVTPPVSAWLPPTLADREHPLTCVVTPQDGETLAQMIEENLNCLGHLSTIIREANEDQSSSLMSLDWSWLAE
The data set is described as follows: Inhibition of IKKalpha in mouse RAW264.7 cells assessed as inhibition of LPS-induced IKK-alpha phosphorylation level after 16 hrs by Western blot analysis. In kind it is cell-based.

For data set [5], the system named is RAW264.7. The data set is described as follows: Anti-inflammatory activity in mouse RAW264.7 cells assessed as inhibition of LPS-induced COX-2 level after 16 hrs by Western blot analysis. The data set is classed as functional, cell-based.
Data set [6] has as its target T2, Inhibitor of nuclear factor kappa-B kinase subunit beta (Mus musculus) (UniProt O88351).
T2 sequence (whole entry): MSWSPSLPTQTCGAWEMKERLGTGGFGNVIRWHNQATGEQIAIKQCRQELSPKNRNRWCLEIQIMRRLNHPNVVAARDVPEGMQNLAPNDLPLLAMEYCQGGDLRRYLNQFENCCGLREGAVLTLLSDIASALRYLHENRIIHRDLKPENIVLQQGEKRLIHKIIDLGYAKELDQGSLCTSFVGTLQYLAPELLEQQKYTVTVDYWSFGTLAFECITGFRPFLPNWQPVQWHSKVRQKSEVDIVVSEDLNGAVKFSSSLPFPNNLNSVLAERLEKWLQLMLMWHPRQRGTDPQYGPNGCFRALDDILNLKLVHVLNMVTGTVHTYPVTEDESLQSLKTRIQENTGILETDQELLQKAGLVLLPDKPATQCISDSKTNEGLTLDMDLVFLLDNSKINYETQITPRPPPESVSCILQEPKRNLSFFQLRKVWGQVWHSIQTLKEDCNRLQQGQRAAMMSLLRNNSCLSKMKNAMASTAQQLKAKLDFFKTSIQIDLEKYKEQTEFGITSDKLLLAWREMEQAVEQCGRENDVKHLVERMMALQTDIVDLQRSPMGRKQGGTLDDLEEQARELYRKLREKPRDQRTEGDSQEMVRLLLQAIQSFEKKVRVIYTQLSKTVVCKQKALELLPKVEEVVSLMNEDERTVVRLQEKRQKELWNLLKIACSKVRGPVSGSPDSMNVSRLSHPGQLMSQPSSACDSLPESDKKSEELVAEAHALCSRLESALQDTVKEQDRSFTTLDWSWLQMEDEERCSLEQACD
As to the kind of experiment: Inhibition of IKKbeta in mouse RAW264.7 cells assessed as inhibition of LPS-induced IKK-beta phosphorylation level after 16 hrs by Western blot analysis. The data set is classed as cell-based.

Data set [7] has as its system RAW264.7. As to the kind of experiment: Anti-inflammatory activity in mouse RAW264.7 cells assessed as inhibition of LPS-induced IL-1beta level after 24 hrs by ELISA. In kind it is functional, cell-based. Background: An ELISA detects its analyte on a solid surface through an enzyme-linked reagent.
The test system of data set [8] is RAW264.7. As to the kind of experiment: Anti-inflammatory activity in mouse RAW264.7 cells assessed as inhibition of LPS-induced IL-6 level after 24 hrs by ELISA. The data set is classed as functional, cell-based.
Data set [9] relates to RAW264.7. The data set is described as follows: Anti-inflammatory activity in mouse RAW264.7 cells assessed as inhibition of LPS-induced TNF-alpha level after 24 hrs by ELISA. The data set is classed as functional, cell-based.

Molecules are shown by their SMILES. pIC50: −log10 of the molar value. Active and inactive are the calls of the source. The rule behind the calls is not given here.

Turning to `CCC(=O)[C@H]1O/C(=C\Cc2ccoc2)[C@@]2(C)CCCC(C)(C)[C@H]12`, the pIC50 in [1] was less than 4.30.

Take `CC1=CC[C@@H]2[C@](C)(CCC[C@]2(C)C(=O)O)[C@H]1CC/C(C)=C/CO`: the pIC50 in data set [1] is 4.39.

As to `COC1C=C(CCC2=C(C)C(=O)[C@@H](O)[C@H]3C(C)(C)[C@H](O)CC[C@]23C)C(=O)O1` (stereo partly specified), the pIC50 in data set [1] was 4.56.

In the case of `C[C@H]1C(=O)[C@@H](O)[C@H]2C(C)(C)C(=O)CC[C@]2(C)[C@@]1(O)CCc1ccoc1`, in data set [1], the pIC50 is less than 4.30.

As for `CCOC1CC(O)(CCC2=C(C)C(=O)C(O)=C3C(C)(C)C(=O)CC[C@]23C)CO1` (stereo partly specified), the pIC50 in data set [1] is 4.64.

As to `CCC(=O)[C@H]1O[C@](O)(CCC2=CC(OC)OC2=O)[C@@]2(C)CCCC(C)(C)[C@H]12` (stereo partly specified), the pIC50 in data set [1] is 4.80.

As to `CCC(O)C(=O)[C@H]1C(C)(C)C(=O)CC[C@]1(C)C(=O)CCc1ccoc1` (stereo partly specified), in data set [1], the pIC50 was less than 4.30.

Take `CC1=C(CCc2ccoc2)[C@@]2(C)CCCC(C)(C)C2=C(O)C1=O`: the pIC50 in data set [1] was 4.34.

As for `CCOC1CC(O)(CCC2=C(C)C(=O)[C@@H](O)[C@H]3C(C)(C)CCC[C@]23C)CO1` (stereo partly specified), in [1], the pIC50 was less than 4.30.

In the case of `CC(=O)O[C@@H]1CC[C@@]2(C)[C@@H](C(=O)[C@H](O)[C@@H](C)[C@]2(O)CCc2ccoc2)C1(C)C`, the pIC50 in data set [1] is less than 4.30.

For `COC1C=C(CC[C@@]2(O)[C@H](C)C(=O)[C@@H](O)[C@H]3C(C)(C)CCC[C@@]32C)C(=O)O1` (stereo partly specified), the pIC50 in data set [1] was 4.61.

Consider `COC1CC(O)(CCC2=C(C)C(=O)[C@@H](O)[C@H]3C(C)(C)CCC[C@]23C)CO1` (stereo partly specified), for which the pIC50 in data set [1] was 4.58.

As for `C[C@@H]1[C@@H](O)C(=O)[C@H]2C(C)(C)CCC[C@]2(C)[C@@]1(O)CCc1ccoc1`, the negative logarithm of the IC50 (pIC50) in [1] is less than 4.30.

For the compound `C[C@@H]1C(=O)C(O)=C2C(C)(C)C(=O)CC[C@]2(C)[C@@]1(O)CCc1ccoc1`, the pIC50 in data set [1] is less than 4.30.

Turning to `CC1=CC[C@H]2[C@@](C)(CO)CCC[C@]2(C)[C@H]1CC/C(C)=C/CO`, the pIC50 in data set [1] is 4.48.

On to `CC1=C(CCc2ccoc2)[C@@]2(C)CC[C@@H](O)C(C)(C)[C@@H]2[C@H](O)C1=O`, for which, in data set [1], the pIC50 is less than 4.30.

Consider `CO[C@@H]1C=C(CCC2=C(C)C(=O)C(O)=C3C(C)(C)C(=O)CC[C@]23C)C(=O)O1`, for which, in data set [1], the pIC50 is less than 4.30.

`CO[C@H]1C=C(CCC2=C(C)C(=O)C(O)=C3C(C)(C)C(=O)CC[C@]23C)C(=O)O1`: the pIC50 in data set [1] is less than 4.30.

With `CCC(=O)[C@H]1O[C@@](CCC2=CC(OC)OC2=O)(OC)[C@@]2(C)CCCC(C)(C)[C@H]12` (stereo partly specified), the inhibition entry in [2], in data set [4], in data set [5] and in [6] was “Active” throughout. The Activity entry in data set [3] is “Non-Toxic”. Besides, in data set [1], the pIC50 was 5.41. The inhibition entry in data set [7], in data set [8] and in [9] was “Dose-dependent effect” throughout.

In the case of `CCC(=O)[C@H]1O[C@@](CCC2=CC(OC)OC2=O)(OC)[C@@]2(C)CC[C@@H](OC(C)=O)C(C)(C)[C@H]12` (stereo partly specified), the pIC50 in [1] was less than 4.30.

Turning to `CCC(O)C(=O)[C@H]1C(C)(C)CCC[C@]1(C)C(=O)CCC1=CCOC1=O` (stereo partly specified), in [1], the pIC50 is less than 4.30.

As to `COC1C=C(CCC2=C(C)C(=O)C(O)=C3C(C)(C)[C@H](OC(C)=O)CC[C@]23C)C(=O)O1` (stereo partly specified), in data set [1], the pIC50 is 4.39.

For the compound `CC1=C(CCc2ccoc2)[C@@]2(C)CCC(=O)C(C)(C)[C@@H]2[C@@H](O)C1=O`, in data set [1], the negative logarithm of the IC50 (pIC50) is less than 4.30.

`CC1=C(CCc2ccoc2)[C@@]2(C)CCC(=O)C(C)(C)C2=C(O)C1=O`: the pIC50 in data set [1] is less than 4.30.

Consider `CC1=C(CCC2=CCOC2=O)[C@@]2(C)CCCC(C)(C)[C@@H]2CC1=O`, for which the pIC50 in data set [1] was 4.36.

As for `CCC(=O)C1O[C@](O)(CCc2ccoc2)[C@@]2(C)CCCC(C)(C)[C@H]12` (single isomer, unassigned), the pIC50 in data set [1] was less than 4.30.

Consider `CC1=CC[C@H]2C(C)(C)CCC[C@]2(C)[C@H]1CC/C(C)=C/CO`, for which, in data set [1], the pIC50 was 4.70.

For `CCOC1CC(O)(CCC2=C(C)C(=O)C(O)=C3C(C)(C)[C@H](OC(C)=O)CC[C@]23C)CO1` (stereo partly specified), in data set [1], the pIC50 was 4.66.

For the compound `COC(OC)[C@@]1(C)CCC[C@@]2(C)[C@H]1CC=C(C)[C@@H]2CC/C(C)=C/CO`, the pIC50 in data set [1] is less than 4.30.

Take `CC(=O)O[C@@H]1CC[C@]2(C)C(CCC3=CCOC3=O)=C(C)C(=O)[C@@H](O)[C@H]2C1(C)C`: the pIC50 in data set [1] was less than 4.30.

Regarding `CC1=CC[C@@H]2[C@](C)(CCC[C@]2(C)C=O)[C@H]1CC/C(C)=C/CO`, in data set [1], the pIC50 is 4.54.

Take `C[C@@H]1C[C@H]2[C@@H]3CCC4=CC(=O)C=C[C@]4(C)[C@@]3(F)[C@@H](O)C[C@]2(C)[C@@]1(O)C(=O)CO` [DEXAMETHASONE]: the pIC50 in data set [1] was 4.61.

Take `CCC(=O)[C@H]1O[C@@](CCC2=CCOC2=O)(OC)[C@@]2(C)CCCC(C)(C)[C@H]12`: in data set [1], the negative-log IC50 (pIC50) was 4.66.

For `CC(=O)O[C@@H]1CC[C@]2(C)C(CCc3ccoc3)=C(C)C(=O)[C@@H](O)[C@H]2C1(C)C`, the negative-log IC50 (pIC50) in data set [1] was 4.65.

As for `CC1=C(CCc2ccoc2)[C@@]2(C)CCCC(C)(C)[C@@H]2[C@H](O)C1=O`, in data set [1], the pIC50 was less than 4.30.

Regarding `C=C1CC[C@H]2C(C)(C)CCC[C@]2(C)[C@H]1CC/C(C)=C/CO`, in data set [1], the negative-log IC50 (pIC50) is 4.48.

For the compound `CCC(=O)[C@H]1O[C@@](CCc2ccoc2)(OC)[C@@]2(C)CCCC(C)(C)[C@H]12`, in data set [1], the pIC50 is less than 4.30.

As to `CCOC1CC(O)(CCC2=C(C)C(=O)[C@@H](O)[C@H]3C(C)(C)[C@H](OC(C)=O)CC[C@]23C)CO1` (stereo partly specified), the pIC50 in data set [1] was 4.52.
